Laboratory results taken from publication PMC12751141, “Disrupting α-Synuclein–ClpP interaction restores mitochondrial function and attenuates neuropathology in Parkinson’s disease models” (Molecular Neurodegeneration, 2025).

What was measured:
[1] = tested on: mThy1-hSNCA mice; experiment: Y-maze test in mThy1-hSNCA mice; type: in vivo, mouse
Description: C57BL/6 N-Tg (Thy1-SNCA)15Mjff/J (JAX: 017682) breeders (C57Bl/6NJ genetic background) were purchased from Jackson Laboratories. The mice were mated, bred, and genotyped in the animal facility of Case Western Reserve University. All mice were maintained at a 12-hour light/dark cycle (on 6 am, off 6 pm). All randomization and peptide treatments in mThy1-hSNCA mice were prepared by an experimenter not associated with the behavioral and neuropathology analysis. Only male mice were used in the study. mThy1-hSNCA transgenic mice and their age-matched WT littermates were implanted with a 28-day subcutaneous osmotic pump (Alzet, Cupertino CA, Model 2004) containing either TAT control peptide or CS2 peptide, which delivered the peptides at indicated rate (1 or 3 or 10 mg/kg/day). The pump was replaced once every four weeks. All mice were sacrificed at age of 10-month for neuropathology assessment.
On the test day, mice at 6-month-old were brought to the testing room one hour before performing the Y-maze test to allow habituation. The mice were placed in the middle of the Y-maze and allowed to explore the three arms for 4-min. During exploration, the arm entries were recorded. The equipment was cleaned after every test to avoid odor disturbance. Spontaneous alternation was defined as a successive entry into three different arms on overlapping triplet sets.
Fig. 7 CS2 treatment is protective in mThy1-hSNCA mouse model of PD. (A) Experimental schematic of CS2 treatment in mThy1-hSNCA (Thy1) mouse model of PD: TAT or CS2 peptide was administered (3 mg/kg/day) via subcutaneous osmotic pump (O.P.) in Thy1 mice and their wild-type (WT) littermates starting from age of 4-month till 10-month. […] (D) Representative images of pS129-αSyn staining in substantia nigra of WT and Thy1 mice treated with TAT or CS2 peptide (scale bar = 100 μm). […] (G) Representative images of ClpP and tyrosine […] (TH) staining on the brain coronal sections from TAT or CS2-treated Thy1 mice and their WT littermates (scale bar = 100 μm). […]

[2] = tested on: SH-SY5Y cells; experiment: Cellular ATP in SH-SY5Y cells; type: cell-based
Description: Cells were seeded in 24-well plates, followed by the indicated treatment. The ATP level in each well was determined using the ATP assay kit according to the manufacturer’s procedures (Cayman Chemical, 700410).

[3] = tested on: SH-SY5Y cells; experiment: Mitochondrial membrane potential (TMRM) in SH-SY5Y cells; type: cell-based; settings: SH-SY5Y expressing Venus-αSyn, n = 8
Description: Cells cultured on coverslips or 24-well plates were washed with DPBS and then incubated with 0.25 µM Tetramethylrhodamine, methyl ester (TMRM) (Invitrogen, T668), for 20 min at 37 °C. For cells cultured on coverslips, the images were visualized by microscope, and quantification of images was then carried out using NIH Fiji ImageJ software. At least 100 cells per group were counted in the analysis.

With `CC(C)[C@H](NC(=O)CNC(=O)CNC(=O)CCCCCNC(=O)[C@H](CCCNC(=N)N)NC(=O)[C@H](CCCNC(=N)N)NC(=O)[C@H](CCCNC(=N)N)NC(=O)[C@H](CCC(N)=O)NC(=O)[C@H](CCCNC(=N)N)NC(=O)[C@H](CCCNC(=N)N)NC(=O)[C@H](CCCCN)NC(=O)[C@H](CCCCN)NC(=O)[C@H](CCCNC(=N)N)NC(=O)CNC(=O)[C@@H](N)Cc1ccc(O)cc1)C(=O)N[C@H](C(=O)N[C@H](C(=O)N[C@@H](C)C(=O)O)[C@@H](C)O)C(C)C` [CS2, TAT-C6-GGVVTA] the “cognitive activity in Y-maze” value ([1]; 3 mg/kg/day s.c., age of 6-month, n = 15 mice/group, vs TAT) was “improved cognitive activity”, the “spontaneous alternation, dose dependence” value ([1]; 1, 3 or 10 mg/kg/day s.c. osmotic mini pump, 8 weeks from 4 months, tested at 6 months, n = 3 mice/group) was “improved spontaneous alternation behavior in a dose-dependent manner” and the “spontaneous alternation, 3 vs 10 mg/kg/day” value ([1]; s.c., 8 weeks, comparison of 3 and 10 mg/kg/day) was “no significant difference between 3 and 10 mg/kg/day”. The “ATP content, αSyn-expressing cells” value ([2]; SH-SY5Y expressing WT- or A53T-αSyn, n = 6) was “rescued upon CS2 treatment”, the “ATP production, healthy cells” value ([2]; healthy SH-SY5Y, n = 4) was “did not affect cell viability nor ATP production” and the mitochondrial membrane potential [3] was “rescued upon CS2 treatment”.
